According to US12521393B2, “Cytotoxicity targeting chimeras for CCR2-expressing cells” (GLAXOSMITHKLINE INTELLECTUAL PROPERTY DEVELOPMENT LIMITED, priority 2021, dated 2026):

The molecules below were run on endogenous target monocytes in human PBMC (assay: PBMC ex vivo monocyte depletion flow cytometry assay (Example 200)). Details: with anti-cotinine antibody (SEQ ID NO: 11/12), 18-24 hours, EC50 in molar, read-out: Ex Vivo Depletion Assay pEC50 (converted).
Assay type: cell-based
Procedure, shortened: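 Monocyte depletion is reported as pEC50, averaged or given individually across runs, and read by flow cytometry staining CD45, CD14 and CD4 with a viability dye. Compounds, diluted four-fold over 11 points from 1 mM DMSO stocks, were combined with 30 μg/mL Fc-enhanced anti-cotinine antibody and human PBMC, then incubated 18-24 h at 37° C.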

First: CC(C)N(C)[C@@H]1CC[C@H](N2CC[C@H](Nc3ncnc4ccc(C(F)(F)F)cc34)C2=O)[C@H](NC(=O)CCOCCNC(=O)[C@H]2CC[C@@H](NC(=O)COCCNC(=O)[C@H]3CC(=O)N(C)[C@@H]3c3cccnc3)CC2)C1 [Example 107, (2S,3S)-N-(2-(2-(((1S,4R)-4-((2-(3-(((1R,2S,5R)-5-(Isopropyl(methyl)amino)-2-((S)-2-oxo-3-((6-(trifluoromethyl)quinazolin-4-yl)amino)pyrrolidin-1-yl)cyclohexyl)amino)-3-oxopropoxy)ethyl)carbamoyl)cyclohexyl)amino)-2-oxoethoxy)ethyl)-1-methyl-5-oxo-2-(pyridin-3-yl)pyrrolidine-3-carboxamide]
Second: CC(C)N(C)[C@@H]1CC[C@H](N2CC[C@H](Nc3ncnc4ccc(C(F)(F)F)cc34)C2=O)[C@H](NC(=O)CNC(=O)[C@H]2CC[C@@H](NC(=O)CCOCCOCCNC(=O)[C@H]3CC(=O)N(C)[C@@H]3c3cccnc3)CC2)C1 [Example 137, (2S,3S)-N-(2-(2-(3-(((1S,4s)-4-((2-(((1R,2S,5R)-5-(Isopropyl(methyl)amino)-2-((S)-2-oxo-3-((6-(trifluoromethyl)quinazolin-4-yl)amino)pyrrolidin-1-yl)cyclohexyl)amino)-2-oxoethyl)carbamoyl)cyclohexyl)amino)-3-oxopropoxy)ethoxy)ethyl)-1-methyl-5-oxo-2-(pyridin-3-yl)pyrrolidine-3-carboxamide]
The EC50 of the first is 10-fold lower: 0.2 nM for the first, 2 nM for the second.

First: CC(C)N(C)[C@@H]1CC[C@H](N2CC[C@H](Nc3ncnc4ccc(C(F)(F)F)cc34)C2=O)[C@H](NC(=O)COCCNC(=O)COCCNC(=O)COCCNC(=O)[C@H]2CC(=O)N(C)[C@@H]2c2cccnc2)C1 [Example 111, (2S,3S)-N-(17-(((1R,2S,5R)-5-(Isopropyl(methyl)amino)-2-((S)-2-oxo-3-((6-(trifluoromethyl)quinazolin-4-yl)amino)pyrrolidin-1-yl)cyclohexyl)amino)-5,11,17-trioxo-3,9,15-trioxa-6,12-diazaheptadecyl)-1-methyl-5-oxo-2-(pyridin-3-yl)pyrrolidine-3-carboxamide]
Second: CC(C)N(C)[C@@H]1CC[C@H](N2CC[C@H](Nc3ncnc4ccc(C(F)(F)F)cc34)C2=O)[C@H](NC(=O)CCOCCC(=O)N[C@H]2C[C@@H](C(=O)NCCOCCNC(=O)[C@H]3CC(=O)N(C)[C@@H]3c3cccnc3)C2)C1 [Example 186, (2S,3S)-N-(2-(2-((1S,3R)-3-(3-(3-(((1R,2S,5R)-5-(Isopropyl(methyl)amino)-2-((S)-2-oxo-3-((6-(trifluoromethyl)quinazolin-4-yl)amino)pyrrolidin-1-yl)cyclohexyl)amino)-3-oxopropoxy)propanamido)cyclobutane-1-carboxamido)ethoxy)ethyl)-1-methyl-5-oxo-2-(pyridin-3-yl)pyrrolidine-3-carboxamide]
The EC50 of the first is 16-fold higher: 5.01 nM for the first, 0.316 nM for the second.

Compared with `CC(C)N(C)[C@@H]1CC[C@H](N2CC[C@H](Nc3ncnc4ccc(C(F)(F)F)cc34)C2=O)[C@H](NC(=O)[C@H]2CC[C@@H](NC(=O)CCOCCNC(=O)CCNC(=O)CCNC(=O)[C@H]3CC(=O)N(C)[C@@H]3c3cccnc3)CC2)C1` [Example 182, (2S,3S)-N-(3-((3-((2-(3-(((1S,4s)-4-(((1R,2S,5R)-5-(Isopropyl(methyl)amino)-2-((S)-2-oxo-3-((6-(trifluoromethyl)quinazolin-4-yl)amino)pyrrolidin-1-yl)cyclohexyl)carbamoyl)cyclohexyl)amino)-3-oxopropoxy)ethyl)amino)-3-oxopropyl)amino)-3-oxopropyl)-1-methyl-5-oxo-2-(pyridin-3-yl)pyrrolidine-3-carboxamide], `CC(C)N(C)[C@@H]1CC[C@H](N2CC[C@H](Nc3ncnc4ccc(C(F)(F)F)cc34)C2=O)[C@H](NC(=O)CCOCCC(=O)N[C@H]2C[C@H](C(=O)NCCOCCNC(=O)[C@H]3CC(=O)N(C)[C@@H]3c3cccnc3)C2)C1` [Example 187] is 1.6-fold higher in EC50: 0.158 nM for the first, 0.251 nM for the second.
